Reference: the NIST ThermoML archive (doi:10.1021/acs.jced.8b00132)
Where “and” joins values, the source holds several entries; their conditions need not be identical. Equal entries are not always repeated. Numbers after ± are expanded uncertainties.

Settings: transient hot wire

## O=C(C(F)(F)C(F)(F)F)C(F)(C(F)(F)F)C(F)(F)F [dodecafluoro-2-methylpentan-3-one]
359 K, 91 kPa, Gas
  thermal conductivity: 0.0172 ± 0.0011 W/m/K and 0.01701 ± 0.001 W/m/K
359.01 K, 17992 kPa, Liquid
  thermal conductivity: 0.05723 ± 0.0012 W/m/K
359.02 K, 33597 kPa, Liquid
  thermal conductivity: 0.06346 ± 0.0013 W/m/K
359.03 K, 33605 kPa, Liquid
  thermal conductivity: 0.06342 ± 0.0013 W/m/K
359.05 K, 56095 kPa, Liquid
  thermal conductivity: 0.07054 ± 0.0014 W/m/K
359.05 K, 56112 kPa, Liquid
  thermal conductivity: 0.07057 ± 0.0014 W/m/K
359.07 K, 256 kPa, Gas
  thermal conductivity: 0.0162 ± 0.001 W/m/K
359.07 K, 257 kPa, Gas
  thermal conductivity: 0.01618 ± 0.001 W/m/K
359.07 K, 11964 kPa, Liquid
  thermal conductivity: 0.05443 ± 0.0011 W/m/K
359.07 K, 11965 kPa, Liquid
  thermal conductivity: 0.05441 ± 0.0011 W/m/K
359.13 K, 188 kPa, Gas
  thermal conductivity: 0.01636 ± 0.001 W/m/K
359.13 K, 24956 kPa, Liquid
  thermal conductivity: 0.06016 ± 0.0012 W/m/K
359.14 K, 7109 kPa, Liquid
  thermal conductivity: 0.05182 ± 0.0011 W/m/K
359.14 K, 7110 kPa, Liquid
  thermal conductivity: 0.05179 ± 0.0011 W/m/K
359.14 K, 24956 kPa, Liquid
  thermal conductivity: 0.06017 ± 0.0012 W/m/K
359.14 K, 43845 kPa, Liquid
  thermal conductivity: 0.06681 ± 0.0014 W/m/K
359.14 K, 43855 kPa, Liquid
  thermal conductivity: 0.06693 ± 0.0014 W/m/K
359.16 K, 26 kPa, Gas
  thermal conductivity: 0.01687 ± 0.001 W/m/K
359.16 K, 67834 kPa, Liquid
  thermal conductivity: 0.07385 ± 0.0015 W/m/K
359.17 K, 67856 kPa, Liquid
  thermal conductivity: 0.07389 ± 0.0015 W/m/K
359.19 K, 3417 kPa, Liquid
  thermal conductivity: 0.04968 ± 0.001 W/m/K
359.19 K, 3419 kPa, Liquid
  thermal conductivity: 0.04955 ± 0.001 W/m/K
359.22 K, 17993 kPa, Liquid
  thermal conductivity: 0.05729 ± 0.0012 W/m/K and 0.05726 ± 0.0012 W/m/K
359.22 K, 33590 kPa, Liquid
  thermal conductivity: 0.06336 ± 0.0013 W/m/K
359.23 K, 33591 kPa, Liquid
  thermal conductivity: 0.06345 ± 0.0013 W/m/K
359.24 K, 91 kPa, Gas
  thermal conductivity: 0.01701 ± 0.001 W/m/K and 0.01691 ± 0.001 W/m/K
359.24 K, 56073 kPa, Liquid
  thermal conductivity: 0.07065 ± 0.0014 W/m/K
359.24 K, 56086 kPa, Liquid
  thermal conductivity: 0.07061 ± 0.0014 W/m/K
359.27 K, 352 kPa, Liquid
  thermal conductivity: 0.04733 ± 0.00099 W/m/K and 0.04736 ± 0.00099 W/m/K
359.28 K, 352 kPa, Liquid
  thermal conductivity: 0.04735 ± 0.00099 W/m/K
359.29 K, 352 kPa, Liquid
  thermal conductivity: 0.04741 ± 0.00099 W/m/K
359.29 K, 11963 kPa, Liquid
  thermal conductivity: 0.05419 ± 0.0011 W/m/K
359.29 K, 11964 kPa, Liquid
  thermal conductivity: 0.05442 ± 0.0011 W/m/K
359.3 K, 256 kPa, Gas
  thermal conductivity: 0.01611 ± 0.001 W/m/K
359.31 K, 256 kPa, Gas
  thermal conductivity: 0.01615 ± 0.001 W/m/K
359.32 K, 43840 kPa, Liquid
  thermal conductivity: 0.06681 ± 0.0014 W/m/K
359.33 K, 24951 kPa, Liquid
  thermal conductivity: 0.06022 ± 0.0012 W/m/K
359.34 K, 24951 kPa, Liquid
  thermal conductivity: 0.06017 ± 0.0012 W/m/K
359.34 K, 43843 kPa, Liquid
  thermal conductivity: 0.06687 ± 0.0014 W/m/K
359.35 K, 67807 kPa, Liquid
  thermal conductivity: 0.07425 ± 0.0015 W/m/K
359.36 K, 7099 kPa, Liquid
  thermal conductivity: 0.0518 ± 0.0011 W/m/K
359.36 K, 67822 kPa, Liquid
  thermal conductivity: 0.07392 ± 0.0015 W/m/K
359.37 K, 187 kPa, Gas
  thermal conductivity: 0.01646 ± 0.001 W/m/K
359.37 K, 7108 kPa, Liquid
  thermal conductivity: 0.05182 ± 0.0011 W/m/K
359.38 K, 187 kPa, Gas
  thermal conductivity: 0.01639 ± 0.001 W/m/K
359.4 K, 26 kPa, Gas
  thermal conductivity: 0.01671 ± 0.001 W/m/K
359.41 K, 26 kPa, Gas
  thermal conductivity: 0.01672 ± 0.001 W/m/K
359.42 K, 3418 kPa, Liquid
  thermal conductivity: 0.04952 ± 0.001 W/m/K
359.42 K, 3419 kPa, Liquid
  thermal conductivity: 0.04953 ± 0.001 W/m/K
359.42 K, 33575 kPa, Liquid
  thermal conductivity: 0.06335 ± 0.0013 W/m/K
359.43 K, 33582 kPa, Liquid
  thermal conductivity: 0.06336 ± 0.0013 W/m/K
359.43 K, 56047 kPa, Liquid
  thermal conductivity: 0.07056 ± 0.0014 W/m/K
359.44 K, 17994 kPa, Liquid
  thermal conductivity: 0.05721 ± 0.0012 W/m/K
359.44 K, 18001 kPa, Liquid
  thermal conductivity: 0.05746 ± 0.0012 W/m/K
359.44 K, 56060 kPa, Liquid
  thermal conductivity: 0.07057 ± 0.0014 W/m/K
359.5 K, 91 kPa, Gas
  thermal conductivity: 0.01707 ± 0.0011 W/m/K
359.51 K, 91 kPa, Gas
  thermal conductivity: 0.017 ± 0.001 W/m/K
359.51 K, 11963 kPa, Liquid
  thermal conductivity: 0.05441 ± 0.0011 W/m/K
359.52 K, 352 kPa, Liquid
  thermal conductivity: 0.04737 ± 0.00099 W/m/K and 0.04738 ± 0.00099 W/m/K
359.52 K, 353 kPa, Liquid
  thermal conductivity: 0.04735 ± 0.00099 W/m/K
359.52 K, 11964 kPa, Liquid
  thermal conductivity: 0.05441 ± 0.0011 W/m/K
359.53 K, 352 kPa, Liquid
  thermal conductivity: 0.04692 ± 0.00098 W/m/K
359.54 K, 43829 kPa, Liquid
  thermal conductivity: 0.06685 ± 0.0014 W/m/K
359.54 K, 43830 kPa, Liquid
  thermal conductivity: 0.06684 ± 0.0014 W/m/K
359.55 K, 24946 kPa, Liquid
  thermal conductivity: 0.06014 ± 0.0012 W/m/K
359.55 K, 24949 kPa, Liquid
  thermal conductivity: 0.06011 ± 0.0012 W/m/K
359.56 K, 256 kPa, Gas
  thermal conductivity: 0.01628 ± 0.001 W/m/K
359.57 K, 256 kPa, Gas
  thermal conductivity: 0.01631 ± 0.001 W/m/K
359.6 K, 7096 kPa, Liquid
  thermal conductivity: 0.05174 ± 0.0011 W/m/K
359.6 K, 7098 kPa, Liquid
  thermal conductivity: 0.05175 ± 0.0011 W/m/K
359.63 K, 33565 kPa, Liquid
  thermal conductivity: 0.06333 ± 0.0013 W/m/K
359.64 K, 187 kPa, Gas
  thermal conductivity: 0.01647 ± 0.001 W/m/K and 0.01644 ± 0.001 W/m/K
359.64 K, 33572 kPa, Liquid
  thermal conductivity: 0.06333 ± 0.0013 W/m/K
359.66 K, 18006 kPa, Liquid
  thermal conductivity: 0.0572 ± 0.0012 W/m/K
359.67 K, 3420 kPa, Liquid
  thermal conductivity: 0.04948 ± 0.001 W/m/K
359.67 K, 3421 kPa, Liquid
  thermal conductivity: 0.04951 ± 0.001 W/m/K
359.67 K, 18004 kPa, Liquid
  thermal conductivity: 0.05719 ± 0.0012 W/m/K
359.7 K, 26 kPa, Gas
  thermal conductivity: 0.0168 ± 0.001 W/m/K and 0.01681 ± 0.001 W/m/K
359.75 K, 11967 kPa, Liquid
  thermal conductivity: 0.05434 ± 0.0011 W/m/K
359.76 K, 11965 kPa, Liquid
  thermal conductivity: 0.05435 ± 0.0011 W/m/K
359.77 K, 353 kPa, Liquid
  thermal conductivity: 0.04733 ± 0.00099 W/m/K
359.78 K, 352 kPa, Liquid
  thermal conductivity: 0.0473 ± 0.00099 W/m/K and 0.04737 ± 0.00099 W/m/K
359.78 K, 353 kPa, Liquid
  thermal conductivity: 0.0473 ± 0.00099 W/m/K
359.78 K, 24941 kPa, Liquid
  thermal conductivity: 0.06008 ± 0.0012 W/m/K
